We go through three compounds from PMC4599313 (Journal of the American Chemical Society, 2015).

What all share (format): biochemical
The target in one experiment is T1, PglJ (Campylobacter jejuni, UniProt Q0P9C7).
T1 sequence (Q0P9C7 1-365): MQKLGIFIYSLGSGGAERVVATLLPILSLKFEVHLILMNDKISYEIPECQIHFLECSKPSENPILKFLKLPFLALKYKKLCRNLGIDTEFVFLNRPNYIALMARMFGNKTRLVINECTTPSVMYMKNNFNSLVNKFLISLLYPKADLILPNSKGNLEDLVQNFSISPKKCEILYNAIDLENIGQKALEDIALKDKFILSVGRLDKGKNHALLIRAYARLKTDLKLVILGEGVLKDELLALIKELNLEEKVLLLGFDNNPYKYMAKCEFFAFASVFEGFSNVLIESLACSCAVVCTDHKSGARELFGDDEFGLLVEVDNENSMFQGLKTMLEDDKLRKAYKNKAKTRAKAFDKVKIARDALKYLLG
The experiment is described as follows: HPLC and scintillation counting of [3H]-labelled product. The note with it: Und-PP-diNAcBac-[3H]-GalNAc acceptor; 100 uM UDP-sugar; PglJ 90 nM.

The target in another experiment is T2, PglH (Campylobacter jejuni, UniProt Q0P9C5).
T2 sequence (Q0P9C5 1-359): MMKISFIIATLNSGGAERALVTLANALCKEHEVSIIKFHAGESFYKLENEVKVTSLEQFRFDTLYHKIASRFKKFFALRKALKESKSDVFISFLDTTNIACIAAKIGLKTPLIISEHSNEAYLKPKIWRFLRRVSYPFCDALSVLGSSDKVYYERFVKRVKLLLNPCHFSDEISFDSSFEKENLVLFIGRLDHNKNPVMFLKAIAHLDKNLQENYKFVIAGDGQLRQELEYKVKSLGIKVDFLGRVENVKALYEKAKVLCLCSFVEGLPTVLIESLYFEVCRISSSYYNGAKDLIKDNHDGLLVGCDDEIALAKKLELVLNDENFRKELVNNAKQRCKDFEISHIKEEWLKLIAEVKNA
The experiment is described as follows: normal-phase HPLC of [3H]-labelled glycan. The note with it: [3H]-labelled Und-PP-diNAcBac-GalNAc-GalNAz acceptor.

For the next experiment, the target named is T3, PglC (Campylobacter jejuni, UniProt Q0P9D0).
T3 sequence (Q0P9D0 1-200): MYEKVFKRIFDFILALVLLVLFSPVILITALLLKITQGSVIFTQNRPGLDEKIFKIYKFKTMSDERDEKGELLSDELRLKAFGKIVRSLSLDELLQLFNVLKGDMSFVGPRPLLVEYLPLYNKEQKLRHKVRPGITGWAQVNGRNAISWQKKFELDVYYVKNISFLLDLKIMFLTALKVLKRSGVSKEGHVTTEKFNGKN
The experiment is described as follows: capillary electrophoresis of APTS-labelled monosaccharide. The note with it: Und-P acceptor; 60 min; PglC 10 nM.

Take `[N-]=[N+]=NCC(=O)N[C@H]1[C@@H](OP(=O)(O)OP(=O)(O)OC[C@H]2O[C@@H](n3ccc(=O)[nH]c3=O)[C@H](O)[C@@H]2O)O[C@H](CO)[C@H](O)[C@@H]1O` [UDP-GalNAz]: the “HPLC and scintillation counting of [3H]-labelled product” value at PglJ is reported as “PglJ efficiently incorporates an azido sugar into the Und-PP-trisaccharide”. Take `CC(=O)N[C@H]1[C@@H](OP(=O)(O)OP(=O)(O)OC[C@H]2O[C@@H](n3ccc(=O)[nH]c3=O)[C@H](O)[C@@H]2O)O[C@H](CO)[C@H](O)[C@@H]1O` [UDP-GalNAc]: the “normal-phase HPLC of [3H]-labelled glycan” value on PglH was “the tolerance of PglH was tested by incubating enzyme with UDP-GalNAc and UDP-GalNAz”.

Take `CC(=O)N[C@H]1[C@@H](OP(=O)(O)OP(=O)(O)OC[C@H]2O[C@@H](n3ccc(=O)[nH]c3=O)[C@H](O)[C@@H]2O)O[C@H](C)[C@@H](NC(C)=O)[C@@H]1O` [UDP-diNAcBac]: the “capillary electrophoresis of APTS-labelled monosaccharide” value on PglC is “the conversion was low for both, UDP-diNAcBac and UDP-2-NAc-4-NAzBac”.
